Results on one compound are retold here after paper PMC9516563 (JACS Au, 2022).

In test [1] the test system is SARS-CoV-2 spike pseudoparticles. Type of test: cell-based. The note with it: read-out: IC50 against SARS-CoV-2 spike-mediated transduction.
In another test the test system is SARS-CoV-2 virions. Also noted: species or system SARS-CoV-2 isolate BetaCoV/France/IDF0372/2020.
The next test has as its system SARS-CoV-2. Type of test: cell-based, SARS-CoV-2 isolate BetaCoV/France/IDF0372/2020.
A further test concerns IAV. Format: cell-based, Influenza strain A/PR/8/34 (H1N1; PR8). The conditions noted are these: read-out: IAV IC50.
Test [2] is described as follows: Liposome dye leakage assay. The conditions noted are these: read-out: liposome EC50 (dye leakage); 200 nm liposomes filled with 50 mM carboxyfluorescein, 30 min incubation.

Molecules are shown by their SMILES.

Take `O=C(O)COc1c2c(c(OCC(=O)O)c3c1C1CC3c3cc4c(cc31)C1CC4c3ccccc31)C1CC2c2cc3c(cc21)C1CC3c2ccccc21` [CLR05]: the IC50 (in general, the midpoint of a concentration-inhibition curve) in test [1] is 33 µM; in the test on SARS-CoV-2 (read-out: SARS-CoV-2 IC50) it was 167 µM; with IAV, 70.3 µM. Further, the “morphology of treated SARS-CoV-2 virions (TEM)” value with SARS-CoV-2 virions was “largely disrupted”. In addition, in the test on SARS-CoV-2, the “inhibition of virus infection” value is on record as ~70%. Besides, in test [2], the EC50 (commonly the concentration giving half of the maximal effect) is 121 µM.
